We go through nine compounds from patent publication US11026936B2, “Piperidinyl-propanone derivatives” (Merck Patent GmbH, priority 2016, dated 2021).

For orientation: pIC50 means the IC50 on a negative log10 scale, so that one unit is a factor of ten.

pIC50: −log10 of the molar value.

The experiment concerns the target PDHK2 (Homo sapiens (Human), UniProt Q15119). The experiment in a line: Biochemical activity testing of PDHK2: PDC inactivation assay. The conditions noted are these: human rec PDHK2, PDC from porcine heart, ATP 5 μM; read-out: IC50 PDHK2 (enzyme assay). The source says: Biochemical Activity Testing of PDHK2: PDC Inactivation Assay
The biochemical activity assay for PDHK2 is based on the inactivation of PDC through phosphorylation by PDHK2. The assay is run in two steps: the enzymatic PDHK2 reaction in which isolated PDC is phosphorylated by PDHK2 with ATP as co-substrate and the PDC activity assay in which pyruvate and NAD are converted to acetyl-CoA and NADH. The PDC activity correlates to the increase in NADH and thereby is detectable directly via the increasing fluorescence signal (Exc 340 nm, Em 450 nm). Inhibition of PDHK2 results in a lower phosphorylation status and thereby a less decrease in activity of PDC and a stronger increase in NADH fluorescence signal.
The PDC inactivation assay is performed in Greiner 384-well microtiter plates and is used for high throughput screen. 4 μl of PDHK2 (human, rec, Carna Bioscience, 10 ng/μl-137 nM final concentration) and PDC (isolated from porcine heart, Sigma-Aldrich, 20 mU/ml final concentration) are incubated in the absence or presence of the test compound (10 dilution concentrations) for 30 min at room temperature in kinase buffer (15 mM potassium phosphate buffer, pH 7.0, 60 mM KCl, 1.5 mM DTT, 2.5 mM MgCl2, 0.0125% (w/v) BSA, 0.125% Pluronic F-68). The kinase reaction is started by the addition of 4 μl ATP substrate solution (fc 5 μM in kinase buffer). After 30 min incubation at 37° C. 40 μl of PDC reaction solution (100 mM Tris/HCl, pH 7.8, 0.5 mM EDTA, 1 mM MgCl2, 50 mM NaF, 0.25 mM Coenzyme A, 5 mM pyruvate, 1 mM NAD, 5 mM DTT, 1 mM thiamine pyrophosphate) is added. The first fluorescence measurement is performed on a Perkin Elmer Envision (Exc 340 nm, Em 450 nm). The reaction is incubated for 45 min at room temperature. Afterwards a second fluorescence measurement is performed and the PDC activity is calculated by the difference between both measurements. As full value for the PDHK2 assay the inhibitor-free PDHK2 reaction is used. The pharmacological zero value used is DCA (Sigma-Aldrich) in a final concentration of 3 mM. The inhibitory values (IC50) were determined using either the program Symyx Assay Explorer® or Condosseo® from GeneData.
On to `Cc1ccc(-c2nnc(C3([C@@H]4CCN(C(=O)[C@@](C)(O)C(F)(F)F)C[C@@H]4C)CC3)[nH]2)cc1` [Compound A21, (R)-3,3,3-Trifluoro-2-hydroxy-2-methyl-1-{(3R,4R)-3-methyl-4-[1-(5-p-tolyl-4H-[1,2,4]triazol-3-yl)-cyclopropyl]-piperidin-1-yl}-propan-1-one], for which the pIC50 is 5.31.
In the case of `Cc1ccc(-c2nnc(C3([C@@H]4CCN(C(=O)[C@@](C)(O)C(F)(F)F)C[C@@H]4C)CC3)o2)cc1` [Compound A24, (R)-3,3,3-Trifluoro-2-hydroxy-2-methyl-1-{(3R,4R)-3-methyl-4-[1-(5-p-tolyl-[1,3,4]oxadiazol-2-yl)-cyclopropyl]-piperidin-1-yl}-propan-1-one], the pIC50 was 5.14.
Turning to `C[C@H]1CN(C(=O)[C@@](C)(O)C(F)(F)F)CC[C@H]1C1(c2nnc(-c3ccc(F)cc3)[nH]2)CC1` [Compound A18, (R)-3,3,3-Trifluoro-1-((3R,4R)-4-{1-[5-(4-fluoro-phenyl)-4H-[1,2,4]triazol-3-yl]-cyclopropyl}-3-methyl-piperidin-1-yl)-2-hydroxy-2-methyl-propan-1-one], the pIC50 is 5.59.
Regarding `C[C@H]1CN(C(=O)[C@@](C)(O)C(F)(F)F)CC[C@H]1C1(c2nnc(-c3ccccc3)[nH]2)CC1` [Compound A13, (R)-3,3,3-Trifluoro-2-hydroxy-2-methyl-1-{(3R,4R)-3-methyl-4-[1-(5-phenyl-4H-[1,2,4]triazol-3-yl)-cyclopropyl]-piperidin-1-yl}-propan-1-one], the pIC50 is 5.18.
Take `C[C@H]1CN(C(=O)[C@@](C)(O)C(F)(F)F)CC[C@H]1C1(c2nnc(-c3ccc(Cl)cc3)[nH]2)CC1` [Compound A33, (R)-1-((3R,4R)-4-{1-[5-(4-Chloro-phenyl)-4H-[1,2,4]triazol-3-yl]-cyclopropyl}-3-methyl-piperidin-1-yl)-3,3,3-trifluoro-2-hydroxy-2-methyl-propan-1-one]: the pIC50 is 4.74.
For `COc1ccc(-c2nnc(C3([C@@H]4CCN(C(=O)[C@@](C)(O)C(F)(F)F)C[C@@H]4C)CC3)[nH]2)cn1` [Compound A39, (R)-3,3,3-Trifluoro-2-hydroxy-1-((3R,4R)-4-{1-[5-(6-methoxy-pyridin-3-yl)-4H-[1,2,4]triazol-3-yl]-cyclopropyl}-3-methyl-piperidin-1-yl)-2-methyl-propan-1-one], the pIC50 is 5.22.
On to `C[C@H]1CN(C(=O)[C@@](C)(O)C(F)(F)F)CC[C@H]1C1(c2nnc(-c3ccc(Cl)cc3)o2)CC1` [Compound A36, (R)-1-((3R,4R)-4-{1-[5-(4-Chloro-phenyl)-[1,3,4]oxadiazol-2-yl]-cyclopropyl}-3-methyl-piperidin-1-yl)-3,3,3-trifluoro-2-hydroxy-2-methyl-propan-1-one], for which the pIC50 was 5.09.
As to `COc1ccc(-c2nnc(C3([C@@H]4CCN(C(=O)[C@@](C)(O)C(F)(F)F)C[C@@H]4C)CC3)o2)cc1` [Compound A30, (R)-3,3,3-Trifluoro-2-hydroxy-1-((3R,4R)-4-{1-[5-(4-methoxy-phenyl)-[1,3,4]oxadiazol-2-yl]-cyclopropyl}-3-methyl-piperidin-1-yl)-2-methyl-propan-1-one], the negative logarithm of the IC50 (pIC50) is 5.72.
In the case of `COc1ccc(-c2nnc(C3([C@@H]4CCN(C(=O)[C@@](C)(O)C(F)(F)F)C[C@@H]4C)CC3)[nH]2)cc1` [Compound A27, (R)-3,3,3-Trifluoro-2-hydroxy-1-((3R,4R)-4-{1-[5-(4-methoxy-phenyl)-4H-[1,2,4]triazol-3-yl]-cyclopropyl}-3-methyl-piperidin-1-yl)-2-methyl-propan-1-one] it was 4.89.
